Key:
Type in all cases: in vivo
[1] = tested on: Ctenocephalides felis; assay: Ctenocephalides felis in-vitro contact test, adult cat flea; details: 5 μg/cm^2 (=500 g/ha), after 48 hours, read-out: activity (efficacy, fleas dead or moribund)
How it was run: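 Acetone solutions coated onto inner walls of glass tubes; 900 ppm gives 5 μg/cm^2. After drying, 5-10 adult Ctenocephalides felis per tube held 48 h at room temperature. Fleas then placed on 45-50° C. plate for up to 5 min; those unable to climb away scored dead or moribund, efficacy as % dead/moribund.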

[2] = tested on: Aedes aegypti strain MONHEIM; assay: Aedes aegypti test (AEDSAE surface treatment & contact assay); details: 30 minutes exposure, 24 hours after contact, read-out: efficacy (mortality)
[3] = tested on: Musca domestica strain WHO-N; assay: Musca domestica test (MUSCDO surface treatment & contact assay); details: surface concentration 20 mg/m^2, glazed tile, 30 minutes exposure, 24 hours after contact, read-out: efficacy (mortality)

C[C@H](Nc1nc2cc(C(F)(F)F)c(Cl)cc2o1)c1ncnn1-c1ncccn1 [Example I-001, 6-chloro-N-{(1S)-1-[1-(pyrimidin-2-yl)-1H-1,2,4-triazol-5-yl]ethyl}-5-(trifluoromethyl)-1,3-benzoxazol-2-amine]
pest or weed control at 5 µg/cm2, 5 µg/cm2 [1]: 100% | mortality at 4 mg/m2 ([2]; surface concentration 4 mg/m^2, glazed tile): 85 to 100% | mortality at 20 mg/m2 ([2]; surface concentration 20 mg/m^2, glazed tile): 90 to 100% | mortality at 20 mg/m2 [3]: 90 to 100%
